Here are results for six compounds from patent publication US8741951B2, “Non-steroidal compounds for androgen receptor modulation” (CNR—Consiglio Nazionale delle Ricerche, priority 2009, dated 2014).

One data set has as its system PC-3 cell line. In words: SRB cytotoxicity, PC-3. The class given is cell-based, human. As to conditions: PC-3 (no AR), 144 h, up to 20 μM. On the procedure: (§1) FIGS. 16-25: cytotoxic effect of compounds (R)-XXIII-2, (R)-XXIII-3, (R)-XXIII-4, (R)-XXIII-5, (R)-XXIII-6, (R)-XXIII-7, (R)-XXIII-8, (R)-XXIII-9, (R)-XXIII-10, (R)-XXIV-9 on PC-3 and DU-145 cell lines at different concentration (0.02, 0.2, 2, 20 μM) after 144 h exposure. On the x-axis is reported the concentration, while on the y-axis is reported the inhibition of the net growth (% net growth).
(§2) Sulforhodamine B (SRB) assay was used according to the method by Skehan et al. (JNCI, 1990). Briefly, cells were collected by trypsinization, counted and plated at a density of 5,000 cells/well in 96-well flat-bottomed microtiter plates (100 μl of cell suspension/well). In the chemosensitivity assay, experiments were run in octuplicate, and each experiment was repeated three times. The optical density (OD) of cells was determined at a wavelength of 490 nm by a colorimetric plate reader.
(§3) If ODtreated is above ODzero, treatment has induced a cytostatic effect, whereas if ODtreated is below ODzero, cell killing has occurred. The ODzero depicts the cell number at the moment of drug addition, the ODcontrol reflects the cell number in untreated wells and the ODtreated reflects the cell number in treated wells on the day of the assay.

Another data set has as its system LNCaP cells. In words: SRB in vitro chemosensitivity assay, LNCaP. Format: cell-based. On the procedure:
(§4) The cell lines were maintained as a monolayer at 37° C. and subcultured weekly. Culture medium was composed of RPMI 1640 supplemented with 10% fetal calf serum and 1% glutamine (Mascia Brunelli s.p.a., Milan, Italy). Cells were used in the exponential growth phase in all the experiments.
(§5) Compounds were dissolved in acetone or DMSO (AITES) ([…]) and stored at −20° C. The cell culture containing acetone at the highest concentration was used as the control.
as §2, §3
(§6) FIGS. 2-11 show the cytotoxic activity of the derivative compounds of the invention on the LNCaP and LNCaP-AR cell lines. The authors examined the antitumour activity of the compounds for which the synthesis is described above, in the hormone-sensitive prostate cancer cell line LNCaP and in its derivative cell line LNCaP-AR, expressing high level of AR and with hormone refractory prostate cancer (HRPC) features. The novel compounds were tested at the increasing concentrations of […], 0.2, 2.0, and 20.0 μM. The highest dose used was chosen on the basis of the clinically achievable peak plasma concentration reported in the literature for bicalutamide (Cockshott I D. Clin Pharmacokinet. 2004; 43(13): 855-78). After 144-hr exposure time the cytotoxic effect of the molecules was calculated according to the method of Monks et al. (Monks A, Scudiero D, Skehan P, et al. Feasibility of a high-flux anticancer drug screen using a diverse panel of cultured human tumor cell lines. J Natl Cancer Inst. 1991; 83: 757-66.)

The test system of the next data set is DU145 cell line. Nature of the data set: SRB cytotoxicity, DU145. The class given is cell-based, human. The conditions noted are these: DU145 (no AR), 144 h, up to 20 μM. On the procedure: as §1, §2, §3
The subject of data set [1] is human hepatoblastoma cell line HepG2. Nature of the data set: Cytotoxic activity on HepG2 (hepato-toxicity). Format: cell-based. The conditions noted are these: HepG2, up to highest concentration tested. The procedure:
as §2, §3
FIG. 27-36 show the cytotoxic activity of the drugs on the human hepatoblastoma cell line HepG2. The authors evaluated in vitro the potential hepato-toxicity of some of the novel compounds on HepG2 cell line, a human hepatoblastoma cell line that retains the specialized function of normal hepatocytes [Knowles B B, Howe C C, Aden D P. Human hepatocellular carcinoma cell lines secretes the major plasma proteins and hepatitis B surface antigen. Science 1980, 209:497-499; Aden D P, Vogel A, Plortkin S, Damjanov I, Knowles B B. Controlled synthesis of HBS Ag in a differentiated human liver carcinoma-derived cell line. Nature, 1979, 282:615-616].

The next data set concerns LNCaP-AR cells. Nature of the data set: SRB in vitro chemosensitivity assay, LNCaP-AR. The class given is cell-based. The conditions noted are these: for cytotoxic effect (cytostatic / cytocidal), in words: LNCaP-AR. On the procedure: as §4, §5, §2, §3, §6
[2] abbreviates: Homo sapiens, LNCaP, 144 h, read-out: LC50, LNCaP cells, 144 h exposure, up to 20 μM.
The mark [3] stands for this setting: read-out: LC50, LNCaP cells, 144 h exposure, up to 20 μM.
[4] abbreviates: LNCaP-AR cells, 144 h exposure, up to 20 μM.
The mark [5] stands for this setting: LNCaP cells, 144 h exposure, up to 20 μM.

By GI50 is commonly meant the concentration giving 50% growth inhibition. By LC50 is commonly meant the concentration lethal to half of the exposed cells or organisms.

Like-named read-outs stand apart in the source and are kept apart here.

Take `N#Cc1ccc(C[C@](O)(CS(=O)(=O)c2ccc(F)cc2)C(=O)Nc2ccc(C#N)c(C(F)(F)F)c2)cc1` [(R)-XXIII-7]: the “cytotoxic activity, in words” value with PC-3 cell line and with DU145 cell line was “negligible cytotoxic activity” throughout. The GI50 in the data set on LNCaP cells (Homo sapiens, LNCaP, 144 h) stood at 1.4 µM; in the data set on LNCaP-AR cells (Homo sapiens, LNCaP/AR, 144 h), 1.8 µM. In addition, the 50% lethal concentration (LC50) in the data set on LNCaP cells (setting [2]) is 16.2 to 20 µM; in the data set with LNCaP cells (setting [3]), 20 µM; with LNCaP-AR cells (setting [4]) it was “n.r”. For the same compound, in the data set on LNCaP cells (LNCaP, 144 h, up to 20 μM), the “cytotoxic effect (cytostatic / cytocidal), in words” value is “cytocidal effect”. In addition, in data set [1], the “hepato-toxicity, in words” value is “did not display toxicity”.

Turning to `N#Cc1ccc(NC(=O)[C@](O)(Cc2cc(F)cc(F)c2)CS(=O)(=O)c2ccc(F)cc2)cc1C(F)(F)F` [(R)-XXIII-9], the “cytotoxic activity, in words” value is “maintain their cytostatic and cytocidal activity reaching LC50 values” with PC-3 cell line; “maintain their cytostatic and cytocidal activity reaching LC50 values” in the data set on DU145 cell line. Also, the GI50 was 5.7 µM in the data set on LNCaP cells (Homo sapiens, LNCaP, 144 h) and 8.2 µM with LNCaP-AR cells (Homo sapiens, LNCaP/AR, 144 h). Besides, the LC50 was 16.2 to 20 µM in the data set with LNCaP cells (setting [2]), 19.7 µM with LNCaP cells (setting [3]), “not able to reach LC50 value” in data set [1] and “n.r” with LNCaP-AR cells (setting [4]). Besides, the “cytotoxic effect (cytostatic / cytocidal), in words” value is “cell killing activity” in the data set with LNCaP cells (LNCaP, 144 h, up to 20 μM) and “cell killing activity” in the data set on LNCaP-AR cells (144 h, up to 20 μM). Further, the “hepato-toxicity, in words” value in data set [1] was “Hepato-toxicity was observed”.

On to `N#Cc1ccc(OCC(O)(Cc2ccccc2)C(=O)Nc2ccc(C#N)c(C(F)(F)F)c2)cc1` (stereo in doubt) [(R)-XXIV-9], for which the “cytotoxic activity, in words” value with PC-3 cell line was “maintain their cytostatic and cytocidal activity”; with DU145 cell line, “maintain their cytostatic and cytocidal activity”. For the same compound, the GI50 in the data set with LNCaP cells (Homo sapiens, LNCaP, 144 h) was determined as 6.4 µM; in the data set with LNCaP-AR cells (Homo sapiens, LNCaP/AR, 144 h) it was 7.1 µM. Besides, the LC50 in the data set on LNCaP cells (setting [2]) was 16.2 to 20 µM; with LNCaP cells (setting [3]), 17.4 µM; with LNCaP-AR cells (setting [4]), “n.r”. Also, the “cytotoxic effect (cytostatic / cytocidal), in words” value in the data set with LNCaP cells (LNCaP, 144 h, up to 20 μM) is “cell killing activity”; with LNCaP-AR cells (144 h, up to 20 μM), “cell killing activity”. In addition, in data set [1], the “hepato-toxicity, in words” value is “did not display toxicity”.

Regarding `N#Cc1ccc(NC(=O)[C@](O)(Cc2cccc3ccccc23)CS(=O)(=O)c2ccc(F)cc2)cc1C(F)(F)F` [(R)-XXIII-10], the “cytotoxic activity, in words” value is “maintain their cytostatic and cytocidal activity reaching LC50 values” with PC-3 cell line; “maintain their cytostatic and cytocidal activity reaching LC50 values” in the data set on DU145 cell line. The GI50 in the data set on LNCaP cells (Homo sapiens, LNCaP, 144 h) worked out at 6.1 µM; in the data set with LNCaP-AR cells (Homo sapiens, LNCaP/AR, 144 h) it was 8.3 µM. Besides, the LC50 was 16.2 to 20 µM in the data set on LNCaP cells (setting [2]), 19.7 µM in the data set on LNCaP cells (setting [3]), “not able to reach LC50 value” in data set [1] and “n.r” in the data set with LNCaP-AR cells (setting [4]). Besides, the “cytotoxic effect (cytostatic / cytocidal), in words” value in the data set with LNCaP cells (LNCaP, 144 h, up to 20 μM) was “cell killing activity”; with LNCaP-AR cells (144 h, up to 20 μM) it was “cell killing activity”. Besides, the “hepato-toxicity, in words” value in data set [1] is “Hepato-toxicity was observed”.

With `CC[C@](O)(CS(=O)(=O)c1ccc(F)cc1)C(=O)Nc1ccc(C#N)c(C(F)(F)F)c1` [(R)-XXIII-2], the “cytotoxic activity, in words” value with PC-3 cell line and with DU145 cell line was “negligible cytotoxic activity” in each case. The GI50 result in the data set on LNCaP cells (setting [5]) and in the data set on LNCaP-AR cells (setting [4]) was “n.r” each time. Besides, the LC50 result in the data set with LNCaP cells (setting [5]) and in the data set with LNCaP-AR cells (setting [4]) was “n.r” in each case. Besides, the “cytotoxic effect (cytostatic / cytocidal), in words” value with LNCaP cells (LNCaP, 144 h, up to 20 μM) was “weak cytostatic effect”; with LNCaP-AR cells (144 h, up to 20 μM), “weak cytostatic effect”. Besides, in data set [1], the “hepato-toxicity, in words” value was “did not display toxicity”.

As to `C[C@](O)(CS(=O)(=O)c1ccc(F)cc1)C(=O)Nc1ccc(C#N)c(C(F)(F)F)c1` [(R)-Bicalutamide, reference compound], the GI50 in the data set on LNCaP cells (Homo sapiens, LNCaP cells, 144 h exposure, up to 20 μM, read-out: GI50) was 1.8 µM; in the data set with LNCaP-AR cells (setting [4]) it was “n.r”. Moreover, the LC50 result is given as “n.r.^a” in the data set with LNCaP cells (setting [5]); “not observed” in the data set on LNCaP cells (LNCaP cells, 144 h exposure, up to 20 μM, listed as bicalutamide); “n.r” in the data set on LNCaP-AR cells (setting [4]); “not observed” in the data set on LNCaP-AR cells (LNCaP-AR cells, 144 h exposure, up to 20 μM, listed as bicalutamide).
